Assay results as given in patent publication US7956074B2, “Aryl-isoxazolo-4-yl-oxadiazole derivatives” (Hoffman-La Roche Inc., priority 2005, dated 2011).

Molecular target: T1, GABA A receptor α5β3γ2 (Homo sapiens, UniProt P18507+P31644)
T1 construct: expressed in transfected cells; host or cells: HEK293 cells, transiently transfected; membranes prepared
Experiment: [3H]flumazenil competition binding, human GABA A α5β3γ2
Details: competition for [3H]flumazenil (0.5 nM) binding, HEK293 cells expressing human (transiently transfected) α5β3γ2; means of two determinations; read-out: Ki[nM] hα5
How it was run: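 HEK293 membranes expressing GABA-A receptors (human transiently, rat stably transfected) were used for [3H]flumazenil competition in Krebs-tris buffer, pH 7.5. Incubation ran 1 h at 4 °C to equilibrium, followed by filtration and scintillation counting. Ki values are means of two determinations.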

| Structure (SMILES) | Ki |
| --- | --- |
| Cc1onc(-c2ccccc2)c1-c1nnc(-c2cc(F)ccc2F)o1 [Example 83, 2-(2,5-Difluoro-phenyl)-5-(5-methyl-3-phenyl-isoxazol-4-yl)-[1,3,4]oxadiazole] | 163 nM |
| Cc1onc(-c2ccccc2)c1-c1nnc(-c2cccc(F)c2F)o1 [Example 84, 2-(2,3-Difluoro-phenyl)-5-(5-methyl-3-phenyl-isoxazol-4-yl)-[1,3,4]oxadiazole] | 225 nM |
| COc1cc(-n2ccnn2)ccc1-c1nnc(-c2c(-c3ccccc3)noc2C)o1 [Example 86, 2-(2-Methoxy-4-[1,2,3]triazol-1-yl-phenyl)-5-(5-methyl-3-phenyl-isoxazol-4-yl)-[1,3,4]oxadiazole] | 4.8 nM |
| CCC(=O)Nc1ccc(-c2nnc(-c3c(-c4ccccc4)noc3C)o2)c(OC)c1 [Example 90, N-{3-Methoxy-4-[5-(5-methyl-3-phenyl-isoxazol-4-yl)-[1,3,4]oxadiazol-2-yl]-phenyl}-propionamide] | 4.8 nM |
| COCc1onc(-c2ccccc2)c1-c1nnc(-c2ccc(F)cc2OC)o1 [Example 91, 2-(4-Fluoro-2-methoxy-phenyl)-5-(5-methoxymethyl-3-phenyl-isoxazol-4-yl)-[1,3,4]oxadiazole] | 112 nM |
| COc1cc(F)ccc1-c1nnc(-c2c(-c3ccccc3)noc2CO)o1 [Example 92, {4-[5-(4-Fluoro-2-methoxy-phenyl)-[1,3,4]oxadiazol-2-yl]-3-phenyl-isoxazol-5-yl}-methanol] | 293 nM |
| COc1cc(N2CCOCC2)ccc1-c1nnc(-c2c(-c3cccc(Cl)c3)noc2C)o1 [Example 94, 4-(4-{5-[3-(3-Chloro-phenyl)-5-methyl-isoxazol-4-yl]-[1,3,4]oxadiazol-2-yl}-3-methoxy-phenyl)-morpholine] | 19.3 nM |
| COc1cc(N2CCOCC2)ccc1-c1nnc(-c2conc2-c2ccccc2)o1 [Example 95, 4-{3-Methoxy-4-[5-(3-phenyl-isoxazol-4-yl)-[1,3,4]oxadiazol-2-yl]-phenyl}-morpholine] | 44.5 nM |
| COc1cc(N2CCOCC2)ccc1-c1nnc(-c2c(-c3ccccc3)noc2-c2ccccc2)o1 [Example 96, 4-{4-[5-(3,5-Diphenyl-isoxazol-4-yl)-[1,3,4]oxadiazol-2-yl]-3-methoxy-phenyl}-morpholine] | 15.3 nM |
| COc1cc(N2CCOCC2)ccc1-c1nnc(-c2c(-c3ccccc3Cl)noc2C)o1 [Example 97, 4-(4-{5-[3-(2-Chloro-phenyl)-5-methyl-isoxazol-4-yl]-[1,3,4]oxadiazol-2-yl}-3-methoxy-phenyl)-morpholine] | 105 nM |
| COc1cc(N2CCOCC2)ccc1-c1nnc(-c2conc2-c2ccc(F)cc2)o1 [Example 98, 4-(4-{5-[3-(4-Fluoro-phenyl)-isoxazol-4-yl]-[1,3,4]oxadiazol-2-yl}-3-methoxy-phenyl)-morpholine] | 49 nM |
| COc1ccc(-c2nnc(-c3c(-c4ccccc4)noc3C)o2)c(Cl)n1 [Example 99, 2-Chloro-6-methoxy-3-[5-(5-methyl-3-phenyl-isoxazol-4-yl)-[1,3,4]oxadiazol-2-yl]-pyridine] | 95.8 nM |
| COc1ccc(-c2nnc(-c3c(-c4ccccc4)noc3C)o2)c(OC)n1 [Example 100, 2,6-Dimethoxy-3-[5-(5-methyl-3-phenyl-isoxazol-4-yl)-[1,3,4]oxadiazol-2-yl]-pyridine] | 24 nM |
| COc1cc(N2CCOCC2)ccc1-c1nnc(-c2c(-c3ccc(C(F)(F)F)cc3)noc2C)o1 [Example 103, 4-(3-Methoxy-4-{5-[5-methyl-3-(4-trifluoromethyl-phenyl)-isoxazol-4-yl]-[1,3,4]oxadiazol-2-yl}-phenyl)-morpholine] | 47.6 nM |
| COc1cc(N2CCOCC2)ccc1-c1nnc(-c2c(-c3ccc(C)cc3)noc2C)o1 [Example 104, 4-(3-Methoxy-4-{5-[5-methyl-3-(4-methyl-phenyl)-isoxazol-4-yl]-[1,3,4]oxadiazol-2-yl}-phenyl)-morpholine] | 12.1 nM |
| COc1cc(N2CCOCC2)ccc1-c1nnc(-c2c(-c3ccccc3)noc2Cl)o1 [Example 105, 4-{4-[5-(5-Chloro-3-phenyl-isoxazol-4-yl)-[1,3,4]oxadiazol-2-yl]-3-methoxy-phenyl}-morpholine] | 27.1 nM |
| COc1cc(N2CCOCC2)ccc1-c1nnc(-c2c(-c3ccccc3)noc2N(C)C)o1 [Example 106, {4-[5-(2-Methoxy-4-morpholin-4-yl-phenyl)-[1,3,4]oxadiazol-2-yl]-3-phenyl-isoxazol-5-yl}-dimethyl-amine] | 165 nM |
| COc1cc(N2CCOCC2)ccc1-c1nnc(-c2c(-c3ccccc3)noc2N2CCOCC2)o1 [Example 107, 4-{4-[5-(2-Methoxy-4-morpholin-4-yl-phenyl)-[1,3,4]oxadiazol-2-yl]-3-phenyl-isoxazol-5-yl}-morpholine] | 31.1 nM |
| COc1cc(N2CCOCC2)ccc1-c1nnc(-c2c(-c3ccc(Cl)cc3)noc2C)o1 [Example 109, 4-(4-{5-[3-(4-Chloro-phenyl)-5-methyl-isoxazol-4-yl]-[1,3,4]oxadiazol-2-yl}-3-methoxy-phenyl)-morpholine] | 2.2 nM |

Now from value to molecule:

| Ki | Structure (SMILES) |
| --- | --- |
| 20.6 nM | COc1cc(-n2nccn2)ccc1-c1nnc(-c2c(-c3ccccc3)noc2C)o1 [Example 85, 2-(2-Methoxy-4-[1,2,3]triazol-2-yl-phenyl)-5-(5-methyl-3-phenyl-isoxazol-4-yl)-[1,3,4]oxadiazole] |
| 339 nM | CNCc1onc(-c2ccccc2)c1-c1nnc(-c2ccc(F)cc2OC)o1 [Example 88, {4-[5-(4-Fluoro-2-methoxy-phenyl)-[1,3,4]oxadiazol-2-yl]-3-phenyl-isoxazol-5-ylmethyl}-methyl-amine] |
| 4.6 nM | COc1cc(NC(C)=O)ccc1-c1nnc(-c2c(-c3ccccc3)noc2C)o1 [Example 89, N-{3-Methoxy-4-[5-(5-methyl-3-phenyl-isoxazol-4-yl)-[1,3,4]oxadiazol-2-yl]-phenyl}-acetamide] |
| 22.8 nM | COc1ncccc1-c1nnc(-c2c(-c3ccccc3)noc2C)o1 [Example 93, 2-Methoxy-3-[5-(5-methyl-3-phenyl-isoxazol-4-yl)-[1,3,4]oxadiazol-2-yl]-pyridine] |
| 14.5 nM | COc1cc(N2CCOCC2)ccc1-c1nnc(-c2c(-c3ccc(F)cc3)noc2C)o1 [Example 101, 4-(4-{5-[3-(4-Fluoro-phenyl)-5-methyl-isoxazol-4-yl]-[1,3,4]oxadiazol-2-yl}-3-methoxy-phenyl)-morpholine] |
| 146 nM | COc1cc(N2CCOCC2)ccc1-c1nnc(-c2c(-c3cccnc3)noc2C)o1 [Example 102, 4-{3-Methoxy-4-[5-(5-methyl-3-pyridin-3-yl-isoxazol-4-yl)-[1,3,4]oxadiazol-2-yl]-phenyl}-morpholine] |
| 11.3 nM | COc1cc(N2CCOCC2)ccc1-c1nnc(-c2c(-c3cccc(F)c3)noc2C)o1 [Example 108, 4-(4-{5-[3-(3-Fluoro-phenyl)-5-methyl-isoxazol-4-yl]-[1,3,4]oxadiazol-2-yl}-3-methoxy-phenyl)-morpholine] |
| 19.5 nM | COc1cc(N2CCOCC2)ccc1-c1nnc(-c2c(-c3cccs3)noc2C)o1 [Example 110, 4-{3-Methoxy-4-[5-(5-methyl-3-thiophen-2-yl-isoxazol-4-yl)-[1,3,4]oxadiazol-2-yl]-phenyl}-morpholine] |
| 4.9 nM | CCNc1onc(-c2ccccc2)c1-c1nnc(-c2ccc(N3CCOCC3)cc2OC)o1 [Example 111, Ethyl-{4-[5-(2-methoxy-4-morpholin-4-yl-phenyl)-[1,3,4]oxadiazol-2-yl]-3-phenyl-isoxazol-5-yl}-amine] |
